Experimental data reported in patent US20200230205A1, “COMPOSITIONS AND METHODS FOR TREATING MYELIN DISORDERS” (CASE WESTERN RESERVE UNIVERSITY, priority 2017, published 2020).

What was measured:
[1] = tested on: organotypic cerebellar slice cultures; test: LPC-induced demyelination in mouse cerebellar slice cultures; type: cell-based
Description: We carried out the cerebellar slice culture method as described previously (Zhang, H., et al. Central nervous system remyelination in culture—A tool for multiple sclerosis research. Experimental Neurology 230, 138-148 (2011)). Briefly, 300 μm-thick cerebellar slices were cut from P10-12 mouse cerebellum using a Leica vibrating microtome (Leica, VT1000S) and cultured in medium containing 50% basal medium eagle medium, 25% Heat-inactivated horse serum, 25% Hank's solution, 2.5% glucose, 1% glutamine and penicillin-streptomycin. After 4 days in vitro (DIV), 0.5 mg/ml LPC were added for 17-18h to induce demyelination. Slices were then incubated with 2.5 μM ISP for 8 days. For GM6001 experiments, 25 μM GM6001 (Tocris) and/or 2.5 μM ISP or SISP was incubated for 9 days. Remyelination was examined by semi-quantitative Western blot of MBP and immunofluorescence stain of MBP and NeuF200.
Slices were fixed with 4% PFA, delipidated, and washed three times in PBS, blocked in PBS containing 0.1% Triton X-100 and 5% normal goat serum and incubated with anti-MBP (SMI-99P, Covance, 1:300), and anti-NeuF200 (N4142, Sigma, 1:250) antibodies overnight at 4° C. The slices were then washed in PBS and incubated in Alexa Fluor-conjugated secondary antibodies (1:500, invitrogen) for 2h. Slices were mounted in Vectashield mounting medium with DAPI (Vector Laboratories) and analyzed using Leica DFC500 fluorescence microscope.

laminin = test: Laminin degradation by OPC conditioned media (spot staining and western blot); type: cell-based, mouse
Protocol: CSPG gradients were prepared as described previously (Tom, V. J., et al. Studies on the Development and Behavior of the Dystrophic Growth Cone, the Hallmark of Regeneration Failure, in an In vitro Model of the Glial Scar and after Spinal Cord Injury.). 24-well glass coverslip were coated with poly-L-lysine and nitrocellulose, and a mixture of 700 μg/mL aggrecan (A1960 Sigma) and 10 μg/mL laminin (11243217001 Sigma) spotted on the coated coverslip. After drying, coated coverslips were then incubated with laminin at 37° C. for 3h. Purified OPCs were plated at a density of 10,000/coverslip and cultured in DMEM/F12 medium containing with N2, PDGF (20 ng/ml), FGF (20 ng/ml), NT-3 (5 ng/ml), CNTF (O1 ng/ml), Glutamine (200 mM). Coverslips were stained with CS-56 (C8035, Sigma, 1:500) and O4 antibodies (Hybridoma Core Cleveland Clinic, 1:10). O4-positive cells crossing the aggrecan border were counted for each spot. For CSPG gradient quantification, 1×10^6 OPCs were plated per well on PLL, 1 μg/mL laminin, and 2 μg/mL aggrecan coated 6-well plates. OPCs treated with vehicle, 2.5 μM ISP, or 2.5 μM SISP for 2 days at 37° C. CM was harvested and incubated with freshly made spots. […] Using ImageJ software (NIH), pixel intensities of the CS-56 or laminin spot rims were quantified using the same ROI. […]

Row | Molecule | colocalization of MBP and neurofilament+ axons ([1]; 25 μM GM6001 or 100 nM OA-Hy in conjunction with 2.5 μM ISP, 9 days) | MBP-neurofilament colocalization ([1]; 2.5 μM ISP for 9 days after LPC, vs control) | remyelination (MBP and NF200 colocalization) ([1]; 2.5 μM ISP, 8 div after LPC, vs vehicle) | aggrecan (Cat301) expression vs vehicle ([1]; 4 div) | aggrecan (Cat301) presence ([1]; 8 div) | CSPG expression vs vehicle ([1]; 14 div) | remyelination (MBP and NF200 colocalization, western blot) ([1]; ISP, 14 div after LPC) | laminin portion of the spot, immunostaining (laminin; CM of OPCs treated with 2.5 μM ISP) | laminin immunoblot (laminin; OPC CM, 2.5 μM ISP, laminin 10 μg/mL)
1 | CCCCCCCC/C=C\CCCCCCCC(=O)NO [OA-Hy, reference compound] | decreased | – | – | – | – | – | – | – | –
2 | GRKKRRQRRRCDMAEHMERLKANDSLKLSQEYESI [ISP] | – | significantly increased | increased remyelination | similar | decrease in aggrecan presence | greater CSPG decrease | abundant remyelinated axons | completely spared | no significant changes
